Reference: patent US11401516B2, “Channel modulators” (AUCKLAND UNISERVICES LIMITED, priority 2014, dated 2022)

Key:
[1] = biological target: T1, hemichannel activity in HCMVEC cells (Homo sapiens, UniProt P17302); assay: Whole-cell voltage clamp, hCMVEC cells; assay type: cell-based; details: for hemichannel activity: 50 μM
T1 construct: isolated human cerebral microvascular endothelial cells (hCMVEC); endogenous in cells; host or cells: hCMVEC
Method: Whole-cell voltage clamp studies were conducted on connexin deficient HeLa cells, Connexin43 transfected HeLa cells and isolated human cerebral microvascular endothelial cells (hCMVEC).
HCMVEC Cells were placed into an extracellular artificial cerebral spinal fluid solution containing (in mM): 144 NaCl, 3.3 KCl, 1.8 CaCl2, 1.8 MgCl2, 10 mM glucose, pH: 7.385 at temperature 37° C. The intracellular pipette solution contained (in mM): 130 KCl, 10 sodium aspartate, 0.26 CaCl2, 2 EGTA, 5 tetraethylammonium-Cl, 1 MgCl2,3 MgATP, 5 Hepes at pH 7.2; and was kept on ice to prevent MgATP breakdown. Pipette resistance was 3.4MΩ with seal resistance=1.3 GΩ. Voltage and perfusion protocols are conducted simultaneously, with cells continuously perfused. Recordings for analysis were taken before Tonabersat perfusion, during and after washout. For channel block studies, 50 μM Tonabersat was washed in for three mins prior to recording, and subsequently washed out three mins before taking the washout recordings.

[2] = tested on: hCMVEC cells; assay: Scrape load assay (Lucifer yellow dye transfer); assay type: cell-based, human
Method: In the below Examples 2, 4, 5, 8 and 10 using human cerebral microvascular endothelial cells (hCMVEC), cells were prepared by growing them in collagen coated (30 μg/mL) T25 or T75 flasks maintained in Medium M199 supplemented with 10% FCS, 1 μg/mL hydrocortisone, 3 ng/mL hFGF, 1 ng/mL hEGF, 10 μg/mL heparin, 1× penicillin streptomycin neomycin (Life Technologies), and cAMP (100 μL 100% cAMP to 100 mL media). Cells were maintained at 37° C. with 95% O2 and 5% CO2.
In this Example, human cerebral microvascular endothelial cells (hCMVEC) were grown in collagen coated (1 μg/mL) T25 flasks maintained in Medium M199 supplemented with 10% FBS, 1 μg/mL hydrocortisone, 3 ng/mL hFGF, 1 ng/mL hEGF, 10 μg/mL heparin and cAMP (100 μL 100% cAMP to 100 mL media) in a humidified atmosphere at 37° C. with 5% CO2. One day prior to experimentation, these cells were trypsinized and plated at a density of 4×10^5 cells/well in a collagen-coated 12 well-plate in the same medium. For treatments, cells were cultured in the presence of peptide5, a control gap junction channel blocker (carbenoxolone), or tonabersat for the respective time intervals prior to scrape dye loading. The blockers were also present in the respective scrape loading solutions.
For scrape loading the hCMVEC cells were washed three times with phosphate buffered saline (PBS) (without divalent cations). A solution of PBS+0.05% lucifer yellow was added to cells. The cells then received a scrape to the monolayer using a size 10 carbon steel surgical blade and incubated in the dark at 37° C. with 5% CO2 for 5 minutes. The cells were washed with PBS four times and then 1 mL of PBS added for fluorescent microscopy.
The live cells were then imaged on a Nikon TE2000E fluorescent microscope whilst maintained in a chamber heated to 37° C. with 5% CO2. Three images pairs were obtained at 10× magnification for each of a phase contrast image to view total cells and a fluorescent image to visualize Lucifer yellow using 488 nm excitation and a GFP filter block. Gap junctional communication was determined by counting the number of Lucifer yellow positive cells and presented as a percentage to the positive cells of the control group. Data was graphed as mean+standard error of the mean using Prism v5.02 software. Significance was determined through students two-tailed, unpaired, T Tests. *=p<0.05, **=[…], ***=p<0.001.
An in vitro scrape-loading assay with extracellular Lucifer Yellow (LY), a fluorescent dye that is transferred only through coupled GJs was performed to test whether Tonabersat inhibits GJ communication (M. H. el-Fouly, et al., Experimental cell research 168, 422 (February, 1987)). A single scrape wound was made to a confluent monolayer of hCMVEC cells to enable LY dye to gain access to the cytoplasm of cells at the edge of the wounded region and allow the dye to transfer to adjacent cells through GJs.

T1 sequence (P17302 2-382): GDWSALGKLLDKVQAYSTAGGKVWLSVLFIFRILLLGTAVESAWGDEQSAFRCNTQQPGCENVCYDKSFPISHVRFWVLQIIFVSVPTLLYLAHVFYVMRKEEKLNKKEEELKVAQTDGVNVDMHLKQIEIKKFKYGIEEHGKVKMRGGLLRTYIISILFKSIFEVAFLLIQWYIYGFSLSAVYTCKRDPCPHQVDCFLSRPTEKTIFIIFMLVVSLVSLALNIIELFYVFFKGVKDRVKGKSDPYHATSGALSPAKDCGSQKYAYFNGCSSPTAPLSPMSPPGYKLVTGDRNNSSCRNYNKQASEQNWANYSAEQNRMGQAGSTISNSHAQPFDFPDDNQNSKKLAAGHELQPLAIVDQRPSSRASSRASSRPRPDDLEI

SMILES: CC(=O)c1ccc2c(c1)[C@H](NC(=O)c1ccc(F)c(Cl)c1)[C@H](O)C(C)(C)O2 [Tonabersat, N-[(3S,4S)-6-acetyl-3-hydroxy-2,2-dimethyl-3,4-dihydrochromen-4-yl]-3-chloro-4-fluorobenzamide]
- time to block connexin hemichannels [1]: within one minute
- hemichannel activity ([1]; after three minutes of washout): some activity returning after washout
- hemichannel activity ([1]; during incubation): almost completely abolishes hemichannel activity
- concentration at which GJs are uncoupled [2]: ≥ 50 µM
- time to gap junction uncoupling effect ([2]; 50 μM): ≤ 1 min
- gap junction uncoupling (LY dye transfer) ([2]; 50 μM added immediately): did not significantly reduce GJ coupling
- gap junction uncoupling (LY dye transfer) ([2]; 50 μM added immediately, listed as tonabersat): statistically significant gap junction uncoupling effect
- gap junction uncoupling (LY dye transfer) ([2]; 50 μM, 1 hour prior to the assay): did not significantly reduce GJ coupling
- LY positive cells compared to control ([2]; 50 μM, 2 hours): 72.5±7.4%
- LY positive cells compared to control ([2]; 50 μM, 6 hours): 62.8±7.4%
- LY positive cells compared to control ([2]; 50 μM, 24 hours): 50.5±8.4%
- LY positive cells compared to control ([2]; 100 μM): 46.7±7.8%
- LY positive cells compared to control ([2]; 0.1, 1 and 10 μM, 2 hours): no significant reduction in LY positive cells
- LY positive cells compared to control ([2]; 0.1, 1 and 10 μM, 24 hours): no significant reduction in LY positive cells
